# According to patent US10111819B2 (The Procter & Gamble Company, priority 2015, dated 2018):
# Tests used:
# human TRPA1 receptor = target: T1, human TRPA1 receptor (Homo sapiens, UniProt O75762, K186N/R3C/R58T); test: FLIPR calcium flux, antagonists to CPC activation of TRPA1; type: cell-based; settings: for % inhibition of CPC activation: TRPA1, CPC 100 uM; for % inhibition of CPC activation / Ca count CPC TRPA1 Receptor Antagonist: compound 1 mM (0.04% for extracts); for Ca count CPC TRPA1 Receptor Antagonist: 30 min preincubation, then CPC 100 uM; for inhibition at 1000 µM: read-out: % inhibition of CPC activation
# T1 construct: expressed in transfected cells; host or cells: HEK-293
# T1 sequence (O75762 whole entry R3C/R58T/K186N): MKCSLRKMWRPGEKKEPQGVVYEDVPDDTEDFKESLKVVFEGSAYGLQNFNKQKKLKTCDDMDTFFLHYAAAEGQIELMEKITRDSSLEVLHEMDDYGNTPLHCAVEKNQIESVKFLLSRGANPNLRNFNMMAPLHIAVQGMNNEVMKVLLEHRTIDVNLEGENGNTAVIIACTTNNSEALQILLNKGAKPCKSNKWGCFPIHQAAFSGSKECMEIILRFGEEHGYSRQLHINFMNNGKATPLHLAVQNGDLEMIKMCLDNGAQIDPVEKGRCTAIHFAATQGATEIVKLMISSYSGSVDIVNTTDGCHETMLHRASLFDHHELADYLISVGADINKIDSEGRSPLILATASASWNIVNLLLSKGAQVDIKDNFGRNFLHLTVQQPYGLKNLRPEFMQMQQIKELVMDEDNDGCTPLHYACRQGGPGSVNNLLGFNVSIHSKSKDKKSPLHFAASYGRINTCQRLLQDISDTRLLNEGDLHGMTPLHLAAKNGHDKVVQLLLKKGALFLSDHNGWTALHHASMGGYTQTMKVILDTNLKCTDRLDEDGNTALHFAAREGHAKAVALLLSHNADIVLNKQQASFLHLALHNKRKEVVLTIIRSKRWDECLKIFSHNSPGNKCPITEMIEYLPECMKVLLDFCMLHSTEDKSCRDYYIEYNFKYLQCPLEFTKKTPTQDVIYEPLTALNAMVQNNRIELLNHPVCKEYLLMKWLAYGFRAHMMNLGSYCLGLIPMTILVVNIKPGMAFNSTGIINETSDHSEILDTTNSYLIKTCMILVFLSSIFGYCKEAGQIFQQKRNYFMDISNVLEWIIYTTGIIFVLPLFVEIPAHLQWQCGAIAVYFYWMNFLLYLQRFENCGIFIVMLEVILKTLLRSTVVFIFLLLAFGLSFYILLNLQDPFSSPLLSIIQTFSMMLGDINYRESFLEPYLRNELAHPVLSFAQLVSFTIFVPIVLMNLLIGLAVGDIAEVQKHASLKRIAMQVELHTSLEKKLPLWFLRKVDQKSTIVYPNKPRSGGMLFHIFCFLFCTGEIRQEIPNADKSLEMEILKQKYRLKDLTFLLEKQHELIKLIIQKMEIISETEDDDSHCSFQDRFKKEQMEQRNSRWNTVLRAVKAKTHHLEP
# Method: HEK-293 (human embryonic kidney) cells stably transfected with human TRPA1 receptor (SEQ ID NO. 2) were grown in 15 ml growth medium [high glucose DMEM (Dulbecco's Modification of Eagle's Medium) supplemented with 10% FBS (fetal bovine serum)], 100 μg/ml Penicillin/streptomycin, 100 μg/ml G418] in a 75 Cm^2 flask for 3 days at 37° C. in a mammalian cell culture incubator set at 5% CO2. Cells were detached with addition of 10 ml of PBS (phosphate buffered saline) by gentle hand shaking. Cells were transferred to a 50 ml tube and centrifuged at 850 rpm for 3 minutes to remove PBS. After centrifugation, a pellet of cells was formed in the bottom of the tube separating them from the supernatant solution. The supernatant was discarded and the cell pellet suspended in 1 ml of fresh growth medium to which 5 μl (12.5 μg) of Fluo-4 AM (Molecular Probes, Inc., Grand Island, N.Y.) calcium indicator was added and incubated for 30 min with gentle shaking. Fluo-4 AM is a fluorescent dye used for quantifying cellular Ca^2+ concentrations in the 100 nM to 1 microM range. At the end of the 30 minutes, 45 ml of assay buffer [1×HBSS (Hank's Balanced Salt Solution), 20 mM HEPES (4-(2-Hydroxyethyl)-1-piperazineethanesulfonic acid)] was added to wash cells and the resulting combination was then centrifuged at 850 rpm for 3 minutes to remove excess buffer and Fluo-4 AM calcium indicator; following centrifugation the assay buffer was removed. The pellet cells were re-suspended in 10 ml assay buffer and 90 μl aliquots (˜50,000 cells) per well delivered to a 96-well assay plate containing compounds (final concentration 1 mM for pure compounds, 0.04% for extracts) or buffer control and incubated at room temperature for 30 minutes. After 30 minutes, the plate was placed into a fluorometric imaging plate reader (FLIPR^TETRA from Molecular Devices, Sunnyvale, Calif.) and basal fluorescence recorded (excitation wave length 488 nm and emission wave length 510 nm). The FLIPR assay is an accepted method for detecting changes in intracellular calcium concentration. […] For determining the direct effect of test compounds on TRPA1 receptor, fluorescence was measured immediately after addition of each compound.
# human TRPV1 receptor = target: T2, human TRPV1 receptor (Homo sapiens, UniProt Q8NER1, M315I/T336M); test: FLIPR calcium flux, antagonists to CPC activation of TRPV1; type: cell-based; settings: for Ca count CPC TRPV1 Receptor Antagonist / % inhibition of CPC activation: compound 1 mM (0.04% for extracts); for Ca count CPC TRPV1 Receptor Antagonist: 30 min preincubation, then CPC 100 uM; for inhibition at 1000 µM: read-out: % inhibition of CPC activation; for % inhibition of CPC activation: TRPV1, CPC 100 uM
# T2 construct: expressed in transfected cells; host or cells: HEK-293
# T2 sequence (Q8NER1 whole entry M315I/T336M): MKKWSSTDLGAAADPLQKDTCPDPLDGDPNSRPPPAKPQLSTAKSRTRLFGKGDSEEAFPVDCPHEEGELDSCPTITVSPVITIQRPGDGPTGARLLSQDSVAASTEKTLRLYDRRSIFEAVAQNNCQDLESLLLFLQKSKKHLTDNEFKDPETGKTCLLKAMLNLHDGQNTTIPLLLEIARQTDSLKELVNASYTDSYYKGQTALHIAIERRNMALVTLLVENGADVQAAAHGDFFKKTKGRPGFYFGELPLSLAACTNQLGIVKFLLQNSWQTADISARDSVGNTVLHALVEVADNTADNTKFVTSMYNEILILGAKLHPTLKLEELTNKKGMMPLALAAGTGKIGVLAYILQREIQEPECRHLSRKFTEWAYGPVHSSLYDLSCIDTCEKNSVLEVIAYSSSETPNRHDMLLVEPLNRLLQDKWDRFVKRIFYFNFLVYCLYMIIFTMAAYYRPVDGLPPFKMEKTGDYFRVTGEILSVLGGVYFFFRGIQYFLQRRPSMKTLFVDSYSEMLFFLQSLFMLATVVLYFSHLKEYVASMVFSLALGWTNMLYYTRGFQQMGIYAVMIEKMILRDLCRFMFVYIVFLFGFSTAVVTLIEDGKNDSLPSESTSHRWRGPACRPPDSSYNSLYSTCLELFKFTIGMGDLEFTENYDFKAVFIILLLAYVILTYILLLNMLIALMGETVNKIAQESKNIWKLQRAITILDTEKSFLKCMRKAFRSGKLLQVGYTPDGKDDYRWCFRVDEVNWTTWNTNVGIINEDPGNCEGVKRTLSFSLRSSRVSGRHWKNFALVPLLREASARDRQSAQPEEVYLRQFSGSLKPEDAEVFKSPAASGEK
# Method: HEK-293 (human embryonic kidney) cells stably transfected with human TRPV1 receptor (SEQ ID NO. 1) were grown in 15 ml growth medium [high glucose DMEM (Dulbecco's Modification of Eagle's Medium) supplemented with 10% FBS (fetal bovine serum)], 100 μg/ml Penicillin/streptomycin, 100 μg/ml G418] in a 75 Cm^2 flask for 3 days at 33° C. in a mammalian cell culture incubator set at 5% CO2. Cells were detached with addition of 10 ml of PBS (phosphate buffered saline) by hand shaking gently. Cells were transferred to a 50 ml tube and centrifuged at 850 rpm for 3 minutes to remove PBS. After centrifugation, a pellet of cells is formed in the bottom of the tube separating them from the supernatant solution. The supernatant was discarded and the cell pellet is suspended in 1 ml of fresh growth medium to which 5 μl (12.5 μg) of Fluo-4 AM (Molecular Probes, Inc.) calcium indicator was added and incubated for 30 min with gentle shaking. Fluo-4 AM is a fluorescent dye used for quantifying cellular Ca^2+ concentrations in the 100 nM to […] range. At the end of the 30 minutes, 45 ml of assay buffer [1×HBSS (Hank's Balanced Salt Solution), 20 mM HEPES (4-(2-Hydroxyethyl)-1-piperazineethanesulfonic acid)] was added to wash cells and the resulting combination is then centrifuged at 850 rpm for 3 minutes to remove excess buffer and Fluo-4 AM calcium indicator; following centrifugation the assay buffer was removed. The pelleted cells were re-suspended in 10 ml assay buffer and 90 μl aliquots (˜50,000 cells) per well delivered to a 96-well assay plate containing compounds (final concentration 1 mM for pure compounds, 0.04% for extracts) or buffer control and incubated at room temperature for 30 minutes. After 30 minutes, the plate was placed into a fluorometric imaging plate reader (FLIPR^TETRA from Molecular Devices) and basal fluorescence recorded (excitation wave length 488 nm and emission wave length 510 nm). The FLIPR assay is an accepted method for detecting changes in intracellular calcium concentration. […] For determining the direct effect of test compounds on TRPV1 receptor, fluorescence was measured immediately after addition of each compound.
# [1] = concentration level where the cooling effect can be clearly recognized; cited from earlier work
Compound,Ca count CPC TRPA1 Receptor Antagonist (human TRPA1 receptor) [count],Ca count CPC TRPV1 Receptor Antagonist (human TRPV1 receptor) [count],inhibition at 1000 µM (human TRPV1 receptor) [%],also measured
CC1CCC(C(C)(C)S)C(=O)C1 (centres unmarked) [P-mentha-8-thiol-3-one],3513,,,% inhibition of CPC activation (human TRPA1 receptor): 48.3%
CCCCOC(=O)C(C)C [Butyl Isobutyrate],,1504,57,
"CCCCCC=CC(=O)O [2-Octenoic Acid, Predominantly Trans, 2-Octenoic Acid]",,2878,78.3,
O=S(=O)([O-])[O-].[Mg+2] [Magnesium sulfate],,,,% inhibition of CPC activation (human TRPV1 receptor): 88.1%
CC(C)[C@@H]1CC[C@@H](C)C[C@H]1O [L-menthol],,,,cooling threshold [1]: about 800 ppb
CC1=C(/C=C/C(C)O)C(C)(C)CCC1 (stereo not drawn) [beta-Ionol],,1265,,% inhibition of CPC activation (human TRPV1 receptor): 65.9%
Nc1ccccc1C(=O)Oc1ccc2ccccc2c1 [2-Aminobenzoic Acid Naphthalen-2-Yl Ester],,4172,38.3,
Manganese Citrate,4553,,,% inhibition of CPC activation (human TRPA1 receptor): 52.2%
"CC(C)[C@@H]1CC[C@@H](C)C[C@@H]1O [Rinse 1-neomenthol, 1-neomenthol]",,,,"cooling threshold [1]: about 3,000 ppb"
"CCCC(=O)OC(C)(C)Cc1ccccc1 [Alpha,Alpha-Dimethylphenethyl Butyrate]",,4246,45.2,
CCCCCCCCCCOC(C)=O [Decyl Acetate],,2079,60.2,
CC1(C)C2CC=C(CO)C1C2 (centres unmarked) [Myrtenol],440,,,% inhibition of CPC activation (human TRPA1 receptor): 86.04%; % inhibition of CPC activation (human TRPA1 receptor; listed as myrtenol): 86%
CC(C)[C@@H]1CC[C@@H](C)C[C@@H]1O [d-neomenthol],,,,"cooling threshold [1]: about 25,000 ppb"
CCCCCC=CC(C)=O [3-Nonen-2-one],,3470,43.6,
COc1ccc(CCC(C)=O)cc1 [4-(4-Methoxyphenyl)-2-butanone],,1218,55.2,
COC(=O)CCCc1ccccc1 [Methyl 4-Phenylbutyrate],,3469,43.6,
CC(=O)[O-].CC(=O)[O-].[Zn+2] [Zinc Acetate],,1351,,% inhibition of CPC activation (human TRPV1 receptor): 89.8%
O=C(OC[C@H]1O[C@@H](OC(=O)c2cc(O)c(O)c(OC(=O)c3cc(O)c(O)c(O)c3)c2)[C@H](OC(=O)c2cc(O)c(O)c(OC(=O)c3cc(O)c(O)c(O)c3)c2)[C@@H](OC(=O)c2cc(O)c(O)c(OC(=O)c3cc(O)c(O)c(O)c3)c2)[C@@H]1OC(=O)c1cc(O)c(O)c(OC(=O)c2cc(O)c(O)c(O)c2)c1)c1cc(O)c(O)c(OC(=O)c2cc(O)c(O)c(O)c2)c1 [Tannic Acid],321,,,inhibition at 1000 µM (human TRPA1 receptor): 95.3%
OC[C@H]1O[C@@H]2O[C@H]3[C@H](O)[C@@H](O)[C@@H](O[C@H]4[C@H](O)[C@@H](O)[C@@H](O[C@H]5[C@H](O)[C@@H](O)[C@@H](O[C@H]6[C@H](O)[C@@H](O)[C@@H](O[C@H]7[C@H](O)[C@@H](O)[C@@H](O[C@H]8[C@H](O)[C@@H](O)[C@@H](O[C@H]1[C@H](O)[C@H]2O)O[C@@H]8CO)O[C@@H]7CO)O[C@@H]6CO)O[C@@H]5CO)O[C@@H]4CO)O[C@@H]3CO [beta-Cyclodextrin],2324,,,inhibition at 1000 µM (human TRPA1 receptor): 56.7%
Cc1occc(=O)c1OC(=O)C(C)C [Maltyl Isobutyrate],2882,,,% inhibition of CPC activation (human TRPA1 receptor): 46.3%
CC(=O)CCc1ccc(O)cc1 [4-(4-Hydroxy-phenyl)-butan-2-one],,1127,67.8,
CC1=CCCC(C)(C)C1/C=C/C(C)O (stereo not drawn) [alpha-Ionol],,2620,,% inhibition of CPC activation (human TRPV1 receptor): 66.2%
NCCc1ccc(O)cc1 [Uteramine],,1093,68.8,
CCCOC(=O)c1cc(O)c(O)c(O)c1 [n-propyl gallate],1844,,,inhibition at 1000 µM (human TRPA1 receptor): 65.6%
Manganese Gluconate,2234,,,% inhibition of CPC activation (human TRPA1 receptor): 67.2%
